Assay results as given in DBAASP.
Values after ≈ are worked out from the molar mass of the structure shown. Values joined by “and” are separate entries in the source; they are usually repeats but may differ in a detail not shown here. Equal entries are not always repeated. Values belong to the compound of their own block, whether it stands above or below them.

How the values were obtained:
Test in all cases: ≥ marks a high value that may be exact or a test limit, other limits are often not marked, values filed in µg/mL are converted to µM
[1] = test system: Aeromonas salmonicida 97-4
[2] = test system: Aeromonas salmonicida 99-1
[3] = test system: Candida albicans C627
[4] = test system: Escherichia coli CGSC 4908
[5] = test system: Escherichia coli DC2
[6] = test system: Escherichia coli UB1005
[7] = test system: Pseudomonas aeruginosa K799
[8] = test system: Pseudomonas aeruginosa Z61
[9] = test system: Salmonella enterica serovar typhimurium MS7953s
[10] = test system: Salmonella enterica subsp. enterica serovar Typhimurium ATCC 14028s
[11] = test system: Staphylococcus aureus C623
[12] = test system: Staphylococcus epidermidis C621
[13] = test system: Candida albicans ATCC 10231
[14] = test system: Cryptococcus neoformans ATCC 32045
[15] = test system: Escherichia coli ATCC 2592
[16] = test system: Pseudomonas aeruginosa ATCC 10145
[17] = test system: Staphylococcus aureus ATCC 33591
[18] = test system: Candida albicans ATCC 90029
[19] = test system: Candida albicans
[20] = test system: Escherichia coli ATCC 25922
[21] = test system: Escherichia coli
[22] = test system: Pseudomonas aeruginosa
[23] = test system: Staphylococcus aureus ATCC 29213
[24] = test system: Staphylococcus aureus
[25] = test system: Escherichia coli K88
[26] = test system: Escherichia coli O157:H7 CICC 21530
[27] = test system: Lacticaseibacillus rhamnosus 1.0911
[28] = test system: Lacticaseibacillus rhamnosus 1.0936
[29] = test system: Lacticaseibacillus rhamnosus 1.9021
[30] = test system: Lacticaseibacillus rhamnosus 8014
[31] = test system: Pseudomonas aeruginosa ATCC 27853
[32] = test system: Pseudomonas aeruginosa PAO1
[33] = test system: Salmonella enterica subsp. enterica serovar Choleraesuis CVCC 503
[34] = test system: Salmonella enterica subsp. enterica serovar Pullorum C79-13
[35] = test system: Salmonella enterica subsp. enterica serovar Typhimurium ATCC 14028
[36] = test system: Staphylococcus aureus ATCC 43300
[37] = test system: Staphylococcus epidermidis ATCC 12228
[38] = test system: Streptococcus agalactiae BNCC 185941
[39] = test system: Escherichia coli J2210
[40] = test system: Escherichia coli JJ2487
[41] = test system: Escherichia coli JW0013
[42] = test system: Escherichia coli MC1061
[43] = test system: Escherichia coli O157:H7
[44] = test system: Salmonella enterica subsp. enterica serovar Enteritidis MH91989
[45] = test system: Salmonella typhimurium SL1344

- MIC [1]: 23.3 µM (≈ 64 µg/mL)
- MIC [2]: 23.3 µM (≈ 64 µg/mL)
- MIC [3]: 23.3 µM (≈ 64 µg/mL)
- MIC [4]: 11.6 µM (≈ 32 µg/mL)
- MIC [5]: 11.6 µM (≈ 32 µg/mL)
- MIC [6]: 5.82 µM (≈ 16 µg/mL)
- MIC [7]: 11.6 µM (≈ 32 µg/mL)
- MIC [8]: 2.91 µM (≈ 7.99 µg/mL)
- MIC [9]: 5.82 µM (≈ 16 µg/mL)
- MIC [10]: 23.3 µM (≈ 64 µg/mL)
- MIC [11]: 2.91 µM (≈ 7.99 µg/mL)
- MIC [12]: 2.91 µM (≈ 7.99 µg/mL)
SMILES: CC[C@H](C)[C@H](NC(=O)[C@H](CC(C)C)NC(=O)CNC(=O)[C@H](Cc1cnc[nH]1)NC(=O)[C@@H](NC(=O)[C@H](Cc1c[nH]c2ccccc12)NC(=O)[C@H](CCCCN)NC(=O)CNC(=O)[C@@H](NC(=O)[C@H](Cc1cnc[nH]1)NC(=O)[C@H](Cc1cnc[nH]1)NC(=O)[C@@H](NC(=O)CNC(=O)[C@H](Cc1cnc[nH]1)NC(=O)[C@H](Cc1ccccc1)NC(=O)[C@H](CC(C)C)NC(=O)[C@H](CC(C)C)NC(=O)CNC(=O)[C@H](CC(C)C)NC(=O)[C@@H](N)Cc1ccccc1)C(C)C)C(C)C)[C@@H](C)CC)C(=O)N[C@@H](Cc1cnc[nH]1)C(=O)NCC(=O)N[C@@H](Cc1cnc[nH]1)C(=O)N[C@@H](Cc1cnc[nH]1)C(C)=O [FLGLLFHGVHHVGKWIHGLIHGHH]

- MIC [13]: 54.5 µM (≈ 177 µg/mL)
- MIC [14]: 15.3 µM (≈ 49.8 µg/mL)
- MIC [15]: 13.7 µM (≈ 44.5 µg/mL)
- MIC [16]: ≥ 77 µM
- MIC [17]: ≥ 77 µM
SMILES: NCCCC[C@H](NC(=O)[C@H](Cc1ccccc1)NC(=O)[C@H](CCCCN)NC(=O)[C@H](CCCCN)NC(=O)[C@H](Cc1ccccc1)NC(=O)[C@H](CCCCN)NC(=O)[C@H](CCCCN)NC(=O)[C@H](Cc1ccccc1)NC(=O)[C@H](CCCCN)NC(=O)[C@H](CCCCN)NC(=O)[C@H](Cc1ccccc1)NC(=O)[C@H](CCCCN)NC(=O)[C@H](CCCCN)NC(=O)[C@H](Cc1ccccc1)NC(=O)[C@H](CCCCN)NC(=O)[C@H](CCCCN)NC(=O)[C@H](Cc1ccccc1)NC(=O)[C@H](CCCCN)NC(=O)[C@H](CCCCN)NC(=O)[C@H](Cc1ccccc1)NC(=O)[C@H](CCCCN)NC(=O)[C@H](CCCCN)NC(=O)[C@H](Cc1ccccc1)NC(=O)[C@@H](N)CCCCN)C(=O)O [KFKKFKKFKKFKKFKKFKKFKKFK]

- MIC [18]: ≥ 154 µM
- MIC [19]: > 154 µM
- MIC [20]: 4.83 µM (≈ 6.25 µg/mL)
- MIC [21]: 9.66 µM (≈ 12.5 µg/mL)
- MIC [22]: 4.83 µM (≈ 6.25 µg/mL)
- MIC [23]: 4.83 µM (≈ 6.25 µg/mL)
- MIC [24]: 4.83 µM (≈ 6.25 µg/mL)
SMILES: CC(C)C[C@H](NC(=O)[C@H](CO)NC(=O)[C@H](Cc1cnc[nH]1)NC(=O)[C@H](CO)NC(=O)[C@H](CC(C)C)NC(=O)[C@H](CC(C)C)NC(=O)[C@@H](N)CCCCN)C(=O)N[C@@H](CC(C)C)C(=O)N[C@H](C(=O)N[C@H](C(=O)N[C@@H](CC(C)C)C(=O)N[C@@H](C)C(=O)O)[C@@H](C)O)C(C)C [KLLSHSLLVTLA]

- MIC [20]: 4 µM and 8 µM
- MIC [25]: 2 µM (≈ 2.79 µg/mL)
- MIC [26]: 8 µM (≈ 11.2 µg/mL)
- MIC [27]: ≥ 64 µM
- MIC [28]: ≥ 128 µM
- MIC [29]: ≥ 128 µM
- MIC [30]: ≥ 128 µM
- MIC [31]: 4 µM (≈ 5.58 µg/mL)
- MIC [32]: 8 µM (≈ 11.2 µg/mL)
- MIC [34]: 2 µM (≈ 2.79 µg/mL)
- MIC [35]: 32 µM (≈ 44.6 µg/mL)
- MIC [23]: 16 µM (≈ 22.3 µg/mL)
- MIC [36]: 16 µM (≈ 22.3 µg/mL)
- MIC [37]: 128 µM (≈ 179 µg/mL)
- MIC [38]: ≥ 128 µM
SMILES: CC(C)C[C@H](NC(=O)CNC(=O)[C@H](CC(C)C)NC(=O)[C@H](Cc1c[nH]c2ccccc12)NC(=O)[C@H](CC(C)C)NC(=O)CNC(=O)[C@H](CC(C)C)NC(=O)[C@H](CCCN=C(N)N)NC(=O)[C@@H](N)CCCN=C(N)N)C(=O)N[C@@H](CCCN=C(N)N)C(=O)N[C@@H](CCCN=C(N)N)C(N)=O [RRLGLWLGLRR]
- MIC [33]: ≥ 128 µM

SMILES: CC[C@H](C)[C@H](NC(=O)[C@H](CCCN=C(N)N)NC(=O)[C@H](CCCN=C(N)N)NC(=O)[C@@H]1CCCN1C(=O)[C@@H]1CCCN1C(=O)[C@H](CCCN=C(N)N)NC(=O)[C@@H]1CCCN1C(=O)[C@H](CCCN=C(N)N)NC(=O)[C@@H]1CCCN1C(=O)[C@H](CCCCN)NC(=O)[C@H](Cc1ccc(O)cc1)NC(=O)[C@@H]1CCCN1C(=O)[C@H](CCCN=C(N)N)NC(=O)[C@H](CCCCN)NC(=O)[C@H](CC(=O)O)NC(=O)[C@@H](N)C(C)C)C(=O)N[C@@H](Cc1ccc(O)cc1)C(=O)N[C@@H](CC(N)=O)C(=O)N[C@@H](CCCN=C(N)N)C(N)=O [VDKRPYKPRPRPPRRIYNR]
- MIC [39]: 0.122 µM (≈ 0.3 µg/mL)
- MIC [40]: 0.158 µM (≈ 0.39 µg/mL)
- MIC [41]: 0.337 µM (≈ 0.83 µg/mL)
- MIC [42]: 0.0609 µM (≈ 0.15 µg/mL)
- MIC [43]: 0.974 µM (≈ 2.4 µg/mL)
- MIC [44]: 0.158 µM (≈ 0.39 µg/mL)
- MIC [45]: 0.158 µM (≈ 0.39 µg/mL)
